Source: patent publication JP2006056855A, “免疫賦活剤、抗腫瘍剤、抗老化剤、抗肥満剤及び皮膚化粧料” (Maruzen Pharmaceutical Co Ltd, priority 2004, dated 2006)
Values after ≈ are worked out from the molar mass of the structure shown.

Key:
[1] = test system: normal human epidermal keratinocytes (NHEK) [正常ヒト皮膚表皮角化細胞(NHEK)]; assay: Epidermal keratinocyte proliferation test (試験例4), MTT assay; type: cell-based; settings: 72 h, sample solution 3.125 μg/mL, 3 days, St/Ct×100 (no sample = 100%), read-out: epidermal keratinocyte proliferation promotion rate
[2] = test system: human normal skin fibroblasts (NB1RGB) [ヒト正常皮膚線維芽細胞(NB1RGB)]; assay: Fibroblast proliferation test (試験例3), MTT assay; type: cell-based; settings: 72 h, sample solution 12.5 μg/mL, 100 μL added per well, 3 days, (St−Sb)/(Ct−Cb)×100 (no sample = 100%), read-out: fibroblast proliferation promotion rate
[3] = biological target: cyclic AMP phosphodiesterase [サイクリックAMPホスホジエステラーゼ]; assay: Cyclic AMP phosphodiesterase activity inhibition test (試験例5), HPLC; type: biochemical; settings: sample concentration at 50% inhibition of cyclic AMP phosphodiesterase activity, by interpolation; pH 7.5, 37℃, 30 min
[4] = test system: human breast cancer-derived cells (MCF-7) [ヒト乳癌由来細胞(MCF−7)]; assay: Estrogen-like action test (試験例2), MTT assay; type: cell-based; settings: MCF7, sample solution 3.125 μg/mL, A/B×100 (no sample = 100%), read-out: estrogen-like action rate

CC1OC2OC3C(OCC(O)C3O)OC(=O)C34CCC(C)(C)CC3C3=CCC5C6(C)CC(O)C(OC7OC(CO)C(O)C(O)C7OC7OCC(OC(=O)CC(C)(O)CC(=O)OC1C(OC1OCC(O)C(O)C1O)C2O)C(O)C7O)C(C)(CO)C6CCC5(C)C3(C)CC4 (stereo not shown) [ツベイモシドI, ツベイモシドI(tubeimoside I)]
activity at 3.125 µg/mL [1]: 139.4 ± 1.3% | activity at 12.5 µg/mL [2]: 127 ± 2.3% | IC50 [3]: 178.9 µg/mL (≈ 136 µM) | activity at 3.125 µg/mL [4]: 132 ± 3%
